These compounds were tested on Raji (assay: Cytotoxicity against human Raji cells after 48 hrs by MTT assay). Conditions: not given.
Format: functional, cell-based
In the case of `CCOC(=O)[C@]1(C)CCC[C@@]2(C)[C@@H]3CC[C@@]4(C)C[C@]3(CC[C@@H]21)[C@@H]1CON(C(=S)Nc2c(C)cccc2C)[C@@H]14`, the IC50 is reported as 19.7 µM.
For `CCOC(=O)[C@]1(C)CCC[C@@]2(C)[C@@H]3CC[C@@]4(C)C[C@]3(CC[C@@H]21)c1cn(C(=S)Nc2ccc(OC)cc2)nc14`, the IC50 was 6.51 µM.
With `CCOC(=O)[C@]1(C)CCC[C@@]2(C)[C@@H]3CC[C@@]4(C)C[C@]3(CC[C@@H]21)c1cn(C(=S)Nc2ccccc2OC)nc14` the IC50 was 10.1 µM.
In the case of `CCOC(=O)[C@]1(C)CCC[C@@]2(C)[C@@H]3CC[C@@]4(C)C[C@]3(CC[C@@H]21)c1cn(C(=S)Nc2ccc(C)cc2)nc14`, the IC50 is reported as 12.5 µM.
For `CCOC(=O)[C@]1(C)CCC[C@@]2(C)[C@@H]3CC[C@@]4(C)C[C@]3(CC[C@@H]21)[C@@H]1CON(C(=S)Nc2ccc([N+](=O)[O-])cc2)[C@@H]14`, the IC50 was 23.5 µM.
`CCOC(=O)[C@]1(C)CCC[C@@]2(C)[C@@H]3CC[C@@]4(C)C[C@]3(CC[C@@H]21)[C@@H]1CON(C(=S)Nc2cccc([N+](=O)[O-])c2)[C@@H]14` showed an IC50 of over 50 µM.
For `CCOC(=O)[C@]1(C)CCC[C@@]2(C)[C@@H]3CC[C@@]4(C)C[C@]3(CC[C@@H]21)c1cn(C(=S)Nc2cccc(C)c2)nc14`, the IC50 was 14.2 µM.
`CCOC(=O)[C@]1(C)CCC[C@@]2(C)[C@@H]3CC[C@@]4(C)C[C@]3(CC[C@@H]21)[C@@H]1CON(C(=S)Nc2ccccc2)[C@@H]14` showed an IC50 of 32.5 µM.
With `CCOC(=O)[C@]1(C)CCC[C@@]2(C)[C@@H]3CC[C@@]4(C)C[C@]3(CC[C@@H]21)[C@@H]1CON(C(=S)Nc2cccc(C)c2)[C@@H]14` the IC50 was 43.2 µM.
In the case of `CCOC(=O)[C@]1(C)CCC[C@@]2(C)[C@@H]3CC[C@@]4(C)C[C@]3(CC[C@@H]21)c1cn(C(=S)Nc2ccc(Cl)cc2)nc14`, the IC50 is reported as 13 µM.
`CCOC(=O)[C@]1(C)CCC[C@@]2(C)[C@@H]3CC[C@@]4(C)C[C@]3(CC[C@@H]21)c1cn(C(=S)Nc2ccccc2Br)nc14` gave an IC50 of 19.6 µM.
Work on `CCOC(=O)[C@]1(C)CCC[C@@]2(C)[C@@H]3CC[C@@]4(C)C[C@]3(CC[C@@H]21)[C@@H]1CON(C(=S)Nc2ccccc2C)[C@@H]14` yielded an IC50 of 24 µM.
For `CCOC(=O)[C@]1(C)CCC[C@@]2(C)[C@@H]3CC[C@@]4(C)C[C@]3(CC[C@@H]21)[C@@H]1CON(C(=S)Nc2ccccc2OC)[C@@H]14`, the IC50 was over 50 µM.
`CCOC(=O)[C@]1(C)CCC[C@@]2(C)[C@@H]3CC[C@@]4(C)C[C@]3(CC[C@@H]21)c1cn(C(=S)Nc2ccc([N+](=O)[O-])cc2)nc14` was tested, and the IC50 was 17.9 µM.

The compounds below were run on SGC-7901 (assay: Cytotoxicity against human SGC7901 cells after 48 hrs by MTT assay). Conditions: SGC-7901, 48 h.
Format: functional, cell-based
Compound `CCOC(=O)[C@]1(C)CCC[C@@]2(C)[C@@H]3CC[C@@]4(C)C[C@]3(CC[C@@H]21)[C@@H]1CON(C(=S)Nc2c(C)cccc2C)[C@@H]14` has an IC50 of 27.4 µM.
`CCOC(=O)[C@]1(C)CCC[C@@]2(C)[C@@H]3CC[C@@]4(C)C[C@]3(CC[C@@H]21)c1cn(C(=S)Nc2ccc(OC)cc2)nc14` was tested, and the IC50 was 9.65 µM.
`CCOC(=O)[C@]1(C)CCC[C@@]2(C)[C@@H]3CC[C@@]4(C)C[C@]3(CC[C@@H]21)c1cn(C(=S)Nc2ccccc2OC)nc14` gave an IC50 of over 50 µM.
`CCOC(=O)[C@]1(C)CCC[C@@]2(C)[C@@H]3CC[C@@]4(C)C[C@]3(CC[C@@H]21)c1cn(C(=S)Nc2ccc(C)cc2)nc14` was tested, and the IC50 was 14.7 µM.
In the case of `CCOC(=O)[C@]1(C)CCC[C@@]2(C)[C@@H]3CC[C@@]4(C)C[C@]3(CC[C@@H]21)[C@@H]1CON(C(=S)Nc2ccc([N+](=O)[O-])cc2)[C@@H]14`, the IC50 is reported as 49.8 µM.
`CCOC(=O)[C@]1(C)CCC[C@@]2(C)[C@@H]3CC[C@@]4(C)C[C@]3(CC[C@@H]21)[C@@H]1CON(C(=S)Nc2cccc([N+](=O)[O-])c2)[C@@H]14` showed an IC50 of over 50 µM.
In the case of `CCOC(=O)[C@]1(C)CCC[C@@]2(C)[C@@H]3CC[C@@]4(C)C[C@]3(CC[C@@H]21)c1cn(C(=S)Nc2cccc(C)c2)nc14`, the IC50 is reported as 15.3 µM.
In the case of `CCOC(=O)[C@]1(C)CCC[C@@]2(C)[C@@H]3CC[C@@]4(C)C[C@]3(CC[C@@H]21)[C@@H]1CON(C(=S)Nc2ccccc2)[C@@H]14`, the IC50 is reported as 27.6 µM.
`CCOC(=O)[C@]1(C)CCC[C@@]2(C)[C@@H]3CC[C@@]4(C)C[C@]3(CC[C@@H]21)[C@@H]1CON(C(=S)Nc2cccc(C)c2)[C@@H]14` gave an IC50 of 34.1 µM.
Compound `CCOC(=O)[C@]1(C)CCC[C@@]2(C)[C@@H]3CC[C@@]4(C)C[C@]3(CC[C@@H]21)c1cn(C(=S)Nc2ccc(Cl)cc2)nc14` has an IC50 of 21.7 µM.
Compound `CCOC(=O)[C@]1(C)CCC[C@@]2(C)[C@@H]3CC[C@@]4(C)C[C@]3(CC[C@@H]21)c1cn(C(=S)Nc2ccccc2Br)nc14` has an IC50 of 17.2 µM.
For `CCOC(=O)[C@]1(C)CCC[C@@]2(C)[C@@H]3CC[C@@]4(C)C[C@]3(CC[C@@H]21)[C@@H]1CON(C(=S)Nc2ccccc2C)[C@@H]14`, the IC50 was 38.3 µM.
Work on `CCOC(=O)[C@]1(C)CCC[C@@]2(C)[C@@H]3CC[C@@]4(C)C[C@]3(CC[C@@H]21)[C@@H]1CON(C(=S)Nc2ccccc2OC)[C@@H]14` yielded an IC50 of over 50 µM.
With `CCOC(=O)[C@]1(C)CCC[C@@]2(C)[C@@H]3CC[C@@]4(C)C[C@]3(CC[C@@H]21)c1cn(C(=S)Nc2ccc([N+](=O)[O-])cc2)nc14` the IC50 was 34.2 µM.

What follows are compounds tested on A549 (assay: Cytotoxicity against human A549 cells after 48 hrs by MTT assay). Conditions: A549, 48 h.
Format: functional, cell-based
`CCOC(=O)[C@]1(C)CCC[C@@]2(C)[C@@H]3CC[C@@]4(C)C[C@]3(CC[C@@H]21)[C@@H]1CON(C(=S)Nc2c(C)cccc2C)[C@@H]14` gave an IC50 of 41.6 µM.
`CCOC(=O)[C@]1(C)CCC[C@@]2(C)[C@@H]3CC[C@@]4(C)C[C@]3(CC[C@@H]21)c1cn(C(=S)Nc2ccc(OC)cc2)nc14` gave an IC50 of 17.7 µM.
For `CCOC(=O)[C@]1(C)CCC[C@@]2(C)[C@@H]3CC[C@@]4(C)C[C@]3(CC[C@@H]21)c1cn(C(=S)Nc2ccccc2OC)nc14`, the IC50 was over 50 µM.
`CCOC(=O)[C@]1(C)CCC[C@@]2(C)[C@@H]3CC[C@@]4(C)C[C@]3(CC[C@@H]21)c1cn(C(=S)Nc2ccc(C)cc2)nc14` was tested, and the IC50 was over 50 µM.
With `CCOC(=O)[C@]1(C)CCC[C@@]2(C)[C@@H]3CC[C@@]4(C)C[C@]3(CC[C@@H]21)[C@@H]1CON(C(=S)Nc2ccc([N+](=O)[O-])cc2)[C@@H]14` the IC50 was over 50 µM.
`CCOC(=O)[C@]1(C)CCC[C@@]2(C)[C@@H]3CC[C@@]4(C)C[C@]3(CC[C@@H]21)[C@@H]1CON(C(=S)Nc2cccc([N+](=O)[O-])c2)[C@@H]14` was tested, and the IC50 was over 50 µM.
`CCOC(=O)[C@]1(C)CCC[C@@]2(C)[C@@H]3CC[C@@]4(C)C[C@]3(CC[C@@H]21)c1cn(C(=S)Nc2cccc(C)c2)nc14` was tested, and the IC50 was 31.9 µM.
`CCOC(=O)[C@]1(C)CCC[C@@]2(C)[C@@H]3CC[C@@]4(C)C[C@]3(CC[C@@H]21)[C@@H]1CON(C(=S)Nc2ccccc2)[C@@H]14` showed an IC50 of over 50 µM.
For `CCOC(=O)[C@]1(C)CCC[C@@]2(C)[C@@H]3CC[C@@]4(C)C[C@]3(CC[C@@H]21)[C@@H]1CON(C(=S)Nc2cccc(C)c2)[C@@H]14`, the IC50 was over 50 µM.
`CCOC(=O)[C@]1(C)CCC[C@@]2(C)[C@@H]3CC[C@@]4(C)C[C@]3(CC[C@@H]21)c1cn(C(=S)Nc2ccc(Cl)cc2)nc14` showed an IC50 of 20 µM.
`CCOC(=O)[C@]1(C)CCC[C@@]2(C)[C@@H]3CC[C@@]4(C)C[C@]3(CC[C@@H]21)c1cn(C(=S)Nc2ccccc2Br)nc14` gave an IC50 of 38.1 µM.
`CCOC(=O)[C@]1(C)CCC[C@@]2(C)[C@@H]3CC[C@@]4(C)C[C@]3(CC[C@@H]21)[C@@H]1CON(C(=S)Nc2ccccc2C)[C@@H]14` was tested, and the IC50 was over 50 µM.
`CCOC(=O)[C@]1(C)CCC[C@@]2(C)[C@@H]3CC[C@@]4(C)C[C@]3(CC[C@@H]21)[C@@H]1CON(C(=S)Nc2ccccc2OC)[C@@H]14` showed an IC50 of over 50 µM.
Work on `CCOC(=O)[C@]1(C)CCC[C@@]2(C)[C@@H]3CC[C@@]4(C)C[C@]3(CC[C@@H]21)c1cn(C(=S)Nc2ccc([N+](=O)[O-])cc2)nc14` yielded an IC50 of 35.3 µM.

What follows are compounds tested on HeLa (assay: Cytotoxicity against human HeLa cells after 48 hrs by MTT assay). Conditions: not given.
Format: functional, cell-based
Compound `CCOC(=O)[C@]1(C)CCC[C@@]2(C)[C@@H]3CC[C@@]4(C)C[C@]3(CC[C@@H]21)[C@@H]1CON(C(=S)Nc2c(C)cccc2C)[C@@H]14` has an IC50 of over 50 µM.
For `CCOC(=O)[C@]1(C)CCC[C@@]2(C)[C@@H]3CC[C@@]4(C)C[C@]3(CC[C@@H]21)c1cn(C(=S)Nc2ccc(OC)cc2)nc14`, the IC50 was 13.9 µM.
`CCOC(=O)[C@]1(C)CCC[C@@]2(C)[C@@H]3CC[C@@]4(C)C[C@]3(CC[C@@H]21)c1cn(C(=S)Nc2ccccc2OC)nc14` was tested, and the IC50 was over 50 µM.
For `CCOC(=O)[C@]1(C)CCC[C@@]2(C)[C@@H]3CC[C@@]4(C)C[C@]3(CC[C@@H]21)c1cn(C(=S)Nc2ccc(C)cc2)nc14`, the IC50 was 40.5 µM.
In the case of `CCOC(=O)[C@]1(C)CCC[C@@]2(C)[C@@H]3CC[C@@]4(C)C[C@]3(CC[C@@H]21)[C@@H]1CON(C(=S)Nc2ccc([N+](=O)[O-])cc2)[C@@H]14`, the IC50 is reported as over 50 µM.
Compound `CCOC(=O)[C@]1(C)CCC[C@@]2(C)[C@@H]3CC[C@@]4(C)C[C@]3(CC[C@@H]21)[C@@H]1CON(C(=S)Nc2cccc([N+](=O)[O-])c2)[C@@H]14` has an IC50 of over 50 µM.
With `CCOC(=O)[C@]1(C)CCC[C@@]2(C)[C@@H]3CC[C@@]4(C)C[C@]3(CC[C@@H]21)c1cn(C(=S)Nc2cccc(C)c2)nc14` the IC50 was over 50 µM.
`CCOC(=O)[C@]1(C)CCC[C@@]2(C)[C@@H]3CC[C@@]4(C)C[C@]3(CC[C@@H]21)[C@@H]1CON(C(=S)Nc2ccccc2)[C@@H]14` was tested, and the IC50 was over 50 µM.
`CCOC(=O)[C@]1(C)CCC[C@@]2(C)[C@@H]3CC[C@@]4(C)C[C@]3(CC[C@@H]21)[C@@H]1CON(C(=S)Nc2cccc(C)c2)[C@@H]14` gave an IC50 of over 50 µM.
For `CCOC(=O)[C@]1(C)CCC[C@@]2(C)[C@@H]3CC[C@@]4(C)C[C@]3(CC[C@@H]21)c1cn(C(=S)Nc2ccc(Cl)cc2)nc14`, the IC50 was 39 µM.
Work on `CCOC(=O)[C@]1(C)CCC[C@@]2(C)[C@@H]3CC[C@@]4(C)C[C@]3(CC[C@@H]21)c1cn(C(=S)Nc2ccccc2Br)nc14` yielded an IC50 of 43.4 µM.
In the case of `CCOC(=O)[C@]1(C)CCC[C@@]2(C)[C@@H]3CC[C@@]4(C)C[C@]3(CC[C@@H]21)[C@@H]1CON(C(=S)Nc2ccccc2C)[C@@H]14`, the IC50 is reported as over 50 µM.
`CCOC(=O)[C@]1(C)CCC[C@@]2(C)[C@@H]3CC[C@@]4(C)C[C@]3(CC[C@@H]21)[C@@H]1CON(C(=S)Nc2ccccc2OC)[C@@H]14` gave an IC50 of over 50 µM.
`CCOC(=O)[C@]1(C)CCC[C@@]2(C)[C@@H]3CC[C@@]4(C)C[C@]3(CC[C@@H]21)c1cn(C(=S)Nc2ccc([N+](=O)[O-])cc2)nc14` gave an IC50 of 36.2 µM.
